Data reported in PubChem BioAssay AID248 (DTP/NCI, 2004).
Where “and” joins values, the source holds several entries; their conditions need not be identical. Identical values can stand only once. Inconclusive results and toxic doses are left out.

Test system: L1210 leukemia ip in BDF1 mice, survival T/C
Test: NCI In Vivo Anticancer Drug Screen. Data for tumor model L1210 Leukemia (intraperitoneal) in B6D2F1 (BDF1) mice
Details: endpoint: mean survival time, higher = longer survival
Outline: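 Each compound was tested against a transplantable tumor grown in mice. The endpoint was survival, with treated animals benchmarked against vehicle controls as a simple ratio.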

[1] = dose: 100.0 mg/kg/injection, schedule: Q01DX009 (ip), vehicle: Klucel (hydroxypropylcellulose) (HPC)
[2] = dose: 200.0 mg/kg/injection, schedule: Q01DX009 (ip), vehicle: Klucel (hydroxypropylcellulose) (HPC)
[3] = dose: 100.0 mg/kg/injection, schedule: Q01DX001 (ip), vehicle: other
[4] = dose: 200.0 mg/kg/injection, schedule: Q01DX001 (ip), vehicle: other
[5] = dose: 400.0 mg/kg/injection, schedule: Q01DX001 (ip), vehicle: other

Cc1ccc(C(=O)Nc2ncn(C3CC(O)C(CO)O3)c(=O)n2)cc1 (stereo not given)
T/C (dose: 6.25 mg/kg/injection, schedule: Q04DX003 (ip), vehicle: saline with Tween-80): 114 % of control | T/C (dose: 12.5 mg/kg/injection, schedule: Q01DX003 (ip), vehicle: saline with Tween-80): 245 % of control | T/C (dose: 12.5 mg/kg/injection, schedule: Q01DX005 (ip), vehicle: saline): 187 % of control | T/C (dose: 12.5 mg/kg/injection, schedule: Q04DX003 (ip), vehicle: saline with Tween-80): 172 % of control | T/C (dose: 25.0 mg/kg/injection, schedule: Q01DX003 (ip), vehicle: saline with Tween-80): 152 % of control | T/C (dose: 25.0 mg/kg/injection, schedule: Q04DX003 (ip), vehicle: saline with Tween-80): 156 % of control and 185 % of control | T/C (dose: 50.0 mg/kg/injection, schedule: Q01DX003 (ip), vehicle: saline with Tween-80): 111 % of control | T/C (dose: 50.0 mg/kg/injection, schedule: Q01DX005 (ip), vehicle: saline): 90 % of control

CSc1ncnc2c1ncn2NC(=O)C1CCC(=O)N1 (stereo not given)
T/C (dose: 100.0 mg/kg/injection, schedule: Q01DX009 (ip), vehicle: saline): 104 % of control | T/C (dose: 100.0 mg/kg/injection, schedule: Q04DX003 (ip), vehicle: Klucel (hydroxypropylcellulose) (HPC)): 107 % of control | T/C (dose: 200.0 mg/kg/injection, schedule: Q01DX009 (ip), vehicle: saline): 104 % of control | T/C (dose: 200.0 mg/kg/injection, schedule: Q04DX003 (ip), vehicle: Klucel (hydroxypropylcellulose) (HPC)): 100 % of control | T/C (dose: 400.0 mg/kg/injection, schedule: Q01DX009 (ip), vehicle: saline): 106 % of control | T/C (dose: 400.0 mg/kg/injection, schedule: Q04DX003 (ip), vehicle: Klucel (hydroxypropylcellulose) (HPC)): 109 % of control

CSc1ccc(NCN2C(=O)c3ccccc3C2=O)cc1
T/C [1]: 102 % of control | T/C [2]: 100 % of control

O=C(OCCN1CCCCCCCC1)C(c1ccccc1)c1ccccc1
T/C [3]: 101 % of control | T/C [4]: 90 % of control | T/C [5]: 110 % of control

O=C(O)C1CCCCC1C(=O)Nc1cccc2ccccc12 (stereo not given)
T/C [1]: 105 % of control | T/C [2]: 96 % of control | T/C (dose: 400.0 mg/kg/injection, schedule: Q01DX009 (ip), vehicle: Klucel (hydroxypropylcellulose) (HPC)): 93 % of control

COc1ccc(C(CCl)(CCl)c2ccc(OC)cc2)cc1
T/C (dose: 100.0 mg/kg/injection, schedule: Q01DX009 (ip), vehicle: gum acacia): 110 % of control | T/C (dose: 100.0 mg/kg/injection, schedule: Q04DX003 (ip), vehicle: gum acacia): 92 % of control | T/C (dose: 200.0 mg/kg/injection, schedule: Q01DX009 (ip), vehicle: gum acacia): 98 % of control | T/C (dose: 200.0 mg/kg/injection, schedule: Q04DX003 (ip), vehicle: gum acacia): 101 % of control | T/C (dose: 400.0 mg/kg/injection, schedule: Q01DX009 (ip), vehicle: gum acacia): 93 % of control | T/C (dose: 400.0 mg/kg/injection, schedule: Q04DX003 (ip), vehicle: gum acacia): 103 % of control

N#Cc1cn(-c2cccc(Cl)c2)c2ncccc12
T/C (dose: 25.0 mg/kg/injection, schedule: Q01DX001 (ip), vehicle: saline): 103 % of control | T/C (dose: 50.0 mg/kg/injection, schedule: Q01DX001 (ip), vehicle: saline): 100 % of control | T/C (dose: 100.0 mg/kg/injection, schedule: Q01DX001 (ip), vehicle: saline): 103 % of control | T/C (dose: 200.0 mg/kg/injection, schedule: Q01DX001 (ip), vehicle: saline): 87 % of control | T/C (dose: 400.0 mg/kg/injection, schedule: Q01DX001 (ip), vehicle: saline): 91 % of control

CN(C)c1ccc(-c2cc(C(=O)O)c3cc4ccccc4cc3n2)cc1
T/C (dose: 50.0 mg/kg/injection, schedule: Q01DX009 (ip), vehicle: saline with Tween-80): 91 % of control | T/C (dose: 100.0 mg/kg/injection, schedule: Q01DX009 (ip), vehicle: saline with Tween-80): 96 % of control | T/C (dose: 100.0 mg/kg/injection, schedule: Q04DX002 (ip), vehicle: saline with Tween-80): 92 % of control | T/C (dose: 200.0 mg/kg/injection, schedule: Q01DX009 (ip), vehicle: saline with Tween-80): 88 % of control | T/C (dose: 200.0 mg/kg/injection, schedule: Q04DX002 (ip), vehicle: saline with Tween-80): 92 % of control

NCCN1CCc2ccccc2C1
T/C (dose: 6.25 mg/kg/injection, schedule: Q01DX009 (ip), vehicle: saline): 93 % of control | T/C (dose: 12.5 mg/kg/injection, schedule: Q01DX009 (ip), vehicle: saline): 106 % of control | T/C (dose: 25.0 mg/kg/injection, schedule: Q01DX009 (ip), vehicle: saline): 102 % of control

COc1cccc(/C=N\NC(=O)CCCC(=O)N/N=C/c2cccc(OC)c2OC)c1OC
T/C (dose: 50.0 mg/kg/injection, schedule: Q01DX001 (ip), vehicle: other): 91 % of control | T/C [3]: 91 % of control | T/C [4]: 91 % of control | T/C [5]: 91 % of control
